Test results: paper PMC8072159, “5-Bis-(2,6-difluoro-benzylidene) Cyclopentanone Acts as a Selective 11β-Hydroxysteroid Dehydrogenase one Inhibitor to Treat Diet-Induced Nonalcoholic Fatty Liver Disease in Mice” (Frontiers in Pharmacology, 2021)

Assays:
rat 11β-HSD1 = tested on: rat 11β-HSD1; parameters: method as in Lin et al., 2013; conditions: ref Lin et al., 2013; cited from earlier work
human 11β-HSD1 = tested on: human 11β-HSD1; parameters: method as in Lin et al., 2013; conditions: ref Lin et al., 2013; cited from earlier work

O=C1C(=Cc2ccccc2Br)CCC1=Cc1ccccc1Br [5-bis-(2-bromo-benzylidene) cyclopentanone]
IC50 (rat 11β-HSD1): 148 nM | IC50 (human 11β-HSD1): 346 nM

O=C1/C(=C/c2ccc(Cl)cc2Cl)CC/C1=C\c1ccc(Cl)cc1Cl [WZS01, (2E,5E)-2,5-bis(2,4-dichlorobenzylidene) Cyclopentanone]
melting point: 209.4 to 212 °C

Cc1ccc(/C=C2\CC/C(=C\c3ccc(C)cc3C)C2=O)c(C)c1 [WZS03, (2E,5E)-2,5-bis(2,4-dimethylbenzylidene) Cyclopentanone]
melting point: 128.8 to 131.8 °C

O=C1/C(=C/c2cccc(Cl)c2Cl)CC/C1=C\c1cccc(Cl)c1Cl [WZS04, (2E,5E)-2,5-bis(2,3-dichlorobenzylidene) Cyclopentanone]
melting point: 204.6 to 206.8 °C

COc1cc(OC)c(/C=C2\CC/C(=C\c3c(OC)cc(OC)cc3OC)C2=O)c(OC)c1 [WZS05, (2E,5E)-2,5-bis(2,4,6-Trimethoxybenzylidene) Cyclopentanone]
melting point: 195 to 197.8 °C

O=C1/C(=C/c2cc(F)ccc2F)CC/C1=C\c1cc(F)ccc1F [WZS07, (2E,5E)-2,5-bis(2,5-difluorobenzylidene) Cyclopentanone]
melting point: 208.1 to 209.8 °C
